Structures are written as SMILES.

The nature of this data set: Electrode soaking test in electrolyte (coloration of electrolyte). It is filed as physicochemical. As to conditions: electrodes with 90 wt.% of TAQ soaked in 2 mL of 1 M LiTFSI in DOL/DME (1/1 vol.%), -20 °C to 70 °C, 24 hours; no coloration of electrolyte. The source says:
The high-temperature performance of organic cathode materials for LIBs depends on the solubility of the active materials in organic electrolytes as dissolution leads to rapid capacity decay, dramatically reducing the cycling lifetime. On the other hand, the performance of LIBs at low temperatures is heavily dependent on the charge transport and transfer resistance, as well as the solid-state Li^+ diffusion resistance of the electrode. The solubility of TAQ electrodes and deeply lithiated TAQ (Lix-TAQ, 3<x<4) electrodes in a commercially available electrolyte (1 M LiTFSI in DOL/DME (1/1 vol.%)) under various temperatures was evaluated (FIGS. 24C and 31). […] The electrodes were soaked in 2 mL of electrolyte, and kept under various temperatures ranging from -20 °C to 70 °C for 24 hours. […] This insolubility stems from strong intermolecular hydrogen bonding between TAQ molecules and interlayer π- π stacking, which both persist even upon deep lithiation.

In the case of `Nc1c(N)c(=O)c2[nH]c3c(=O)c(N)c(N)c(=O)c3[nH]c2c1=O` [TAQ, bis-tetraaminobenzoquinone], the solubility of electrodes entry is on record as “complete insolubility”.

Source of the values: EP4632836A1, “BATTERIES FOR OPERATION ACROSS TEMPERATURES AND RELATED METHODS” (Massachusetts Institute of Technology, priority 2024, dated 2025).
